Test results as given in ChEMBL document CHEMBL1240303, “Inhibiting transcription of chromosomal DNA with antigene peptide nucleic acids” (2005).
Calls of active or inactive are those of the source. The rule behind the calls is not given here.

Columns and labels:
T47D [1] = experiment: Inhibition of human progesterone receptor A protein expression transfected in human T47D cells at 25 nM by Western blot; assay type: functional, cell-based
T47D [2] = experiment: Inhibition of human progesterone receptor B protein expression transfected in human T47D cells at 25 nM by Western blot; assay type: functional, cell-based
T47D [3] = experiment: Inhibition of human progesterone receptor A protein expression transfected in human T47D cells at 200 nM by Western blot; assay type: functional
T47D [4] = experiment: Inhibition of human progesterone receptor B protein expression transfected in human T47D cells at 200 nM by Western blot; assay type: functional
T47D [5] = experiment: Inhibition of human progesterone receptor A protein expression transfected in human T47D cells at 200 nM in presence of 10 nM of estradiol by Western blot; assay type: functional, cell-based
T47D [6] = experiment: Inhibition of human progesterone receptor B protein expression transfected in human T47D cells at 200 nM in presence of 10 nM of estradiol by Western blot; assay type: functional, cell-based
T47D [7] = experiment: Inhibition of human progesterone receptor A gene expression transfected in human T47D cells at 200 nM by RT-PCR; assay type: functional, cell-based
T47D [8] = experiment: Inhibition of human progesterone receptor B gene expression transfected in human T47D cells at 200 nM by RT-PCR; assay type: functional, cell-based
T47D [9] = experiment: Induction of morphology changes in human T47D cells expressing human progesterone receptor assessed as increase in cell height by confocal microscopy; assay type: functional, cell-based
T47D [10] = experiment: Reduction in cell proliferation of human T47D cells expressing human progesterone receptor by FACS method; assay type: functional, cell-based
T47D [11] = experiment: Increase in Ezrin mRNA expression in human T47D cells expressing human progesterone receptor by RT-PCR relative to untreated control; assay type: functional

Structure (SMILES) | inhibition (T47D [1]) | inhibition (T47D [2]) | inhibition at 0.2 µM (T47D [3]) [%] | inhibition at 0.2 µM (T47D [4]) [%] | inhibition (T47D [5]) | inhibition (T47D [6]) | inhibition (T47D [7]) | inhibition (T47D [8]) | Activity (T47D [9]) | Activity (T47D [10]) | fold change (FC) (T47D [11])
Cc1cn(CC(=O)N(CCNC(=O)CN(CCNC(=O)CN(CCNCC(=O)N(CCNC(=O)CN(CCNC(=O)CN(CCNC(=O)CN(CCNC(=O)CN(CCNC(=O)CN(CCNC(=O)CN(CCNC(=O)CN(CCNC(=O)CN(CCNC(=O)CN(CCNC(=O)CN(CCNC(=O)CN(CCNC(=O)CNC(=O)[C@@H](N)CCCCN)C(=O)Cn2c(N)ccnc2=O)C(=O)Cn2cnc3c(N)ncnc32)C(=O)Cn2cc(C)c(=O)[nH]c2=O)C(=O)Cn2cnc3nc(N)[nH]c(=O)c32)C(=O)Cn2cnc3c(N)ncnc32)C(=O)Cn2c(N)ccnc2=O)C(=O)Cn2cnc3nc(N)[nH]c(=O)c32)C(=O)Cn2cnc3c(N)ncnc32)C(=O)Cn2c(N)ccnc2=O)C(=O)Cn2cc(C)c(=O)[nH]c2=O)C(=O)Cn2cnc3nc(N)[nH]c(=O)c32)C(=O)Cn2cnc3nc(N)[nH]c(=O)c32)C(=O)Cn2cnc3c(N)ncnc32)C(=O)Cn2c(N)ccnc2=O)CC(=O)NCCN(CC(=O)NCCN(CC(=O)NCCN(CC(=O)NCCN(CC(=O)N[C@@H](CCCCN)C(=O)O)C(=O)Cn2c(N)ccnc2=O)C(=O)Cn2c(N)ccnc2=O)C(=O)Cn2c(N)ccnc2=O)C(=O)Cn2c(N)ccnc2=O)c(=O)[nH]c1=O | Active | Active |  |  |  |  |  |  |  |  | 
Cc1cn(CC(=O)N(CCNC(=O)CN(CCNC(=O)CN(CCNC(=O)CN(CCNC(=O)CN(CCNC(=O)CN(CCNC(=O)CNC(=O)[C@@H](N)CCCCN)C(=O)Cn2cc(C)c(=O)[nH]c2=O)C(=O)Cn2cnc3c(=O)[nH]c(N)nc32)C(=O)Cn2cnc3c(N)ncnc32)C(=O)Cn2cnc3c(=O)[nH]c(N)nc32)C(=O)Cn2ccc(N)nc2=O)CC(=O)NCCN(CC(=O)NCCN(CC(=O)NCCN(CC(=O)NCCN(CC(=O)NCCN(CC(=O)NCCN(CC(=O)NCCN(CC(=O)NCCN(CC(=O)NCCN(CC(=O)NCCN(CC(=O)NCCN(CC(=O)NCCN(CC(=O)NCCN(CC(=O)NC(CCCCN)C(=O)O)C(=O)Cn2cc(C)c(=O)[nH]c2=O)C(=O)Cn2cnc3c(=O)[nH]c(N)nc32)C(=O)Cn2cnc3c(=O)[nH]c(N)nc32)C(=O)Cn2cnc3c(=O)[nH]c(N)nc32)C(=O)Cn2cnc3c(N)ncnc32)C(=O)Cn2cnc3c(N)ncnc32)C(=O)Cn2cnc3c(N)ncnc32)C(=O)Cn2ccc(N)nc2=O)C(=O)Cn2cnc3c(=O)[nH]c(N)nc32)C(=O)Cn2cnc3c(=O)[nH]c(N)nc32)C(=O)Cn2cnc3c(N)ncnc32)C(=O)Cn2cnc3c(N)ncnc32)C(=O)Cn2cnc3c(=O)[nH]c(N)nc32)c(=O)[nH]c1=O (stereo not given in full) |  |  | 75 | 75 | Active | Active | inactive | inactive | Active | Active | 8
Cc1cn(CC(=O)N(CCNC(=O)CN(CCNC(=O)CNC(=O)[C@H](N)CCCCN)C(=O)Cn2c(N)ccnc2=O)CC(=O)NCCN(CC(=O)NCCN(CC(=O)NCCN(CC(=O)NCCN(CC(=O)NCCN(CC(=O)NCCN(CC(=O)NCCN(CC(=O)NCCN(CC(=O)NCCN(CC(=O)NCCN(C(=O)CNCCN(CC(=O)NCCN(CC(=O)NCCN(CC(=O)NCCN(CC(=O)NCCN(CC(=O)NCCN(CC(=O)NCCN(CC(=O)N[C@@H](CCCCN)C(=O)O)C(=O)Cn2c(N)ccnc2=O)C(=O)Cn2cnc3nc(N)[nH]c(=O)c32)C(=O)Cn2c(N)ccnc2=O)C(=O)Cn2c(N)ccnc2=O)C(=O)Cn2cc(C)c(=O)[nH]c2=O)C(=O)Cn2c(N)ccnc2=O)C(=O)Cn2cnc3c(N)ncnc32)C(=O)Cn2c(N)ccnc2=O)C(=O)Cn2cnc3nc(N)[nH]c(=O)c32)C(=O)Cn2cc(C)c(=O)[nH]c2=O)C(=O)Cn2c(N)ccnc2=O)C(=O)Cn2cnc3c(N)ncnc32)C(=O)Cn2c(N)ccnc2=O)C(=O)Cn2c(N)ccnc2=O)C(=O)Cn2cnc3c(N)ncnc32)C(=O)Cn2cnc3nc(N)[nH]c(=O)c32)C(=O)Cn2cc(C)c(=O)[nH]c2=O)c(=O)[nH]c1=O | inactive | inactive |  |  |  |  |  |  |  |  | 
Cc1cn(CC(=O)N(CCNC(=O)CN(CCNC(=O)CN(CCNC(=O)CNC(=O)[C@@H](N)CCCCN)C(=O)Cn2cc(C)c(=O)[nH]c2=O)C(=O)Cn2cnc3c(=O)[nH]c(N)nc32)CC(=O)NCCN(CC(=O)NCCN(CC(=O)NCCN(CC(=O)NCCN(CC(=O)NCCN(CC(=O)NCCN(CC(=O)NCCN(CC(=O)NCCN(CC(=O)NCCN(CC(=O)NCCN(CC(=O)NCCN(CC(=O)NCCN(CC(=O)NCCN(CC(=O)NCCN(CC(=O)NCCN(CC(=O)NCCN(CC(=O)N[C@@H](CCCCN)C(=O)O)C(=O)Cn2ccc(N)nc2=O)C(=O)Cn2cnc3c(=O)[nH]c(N)nc32)C(=O)Cn2cnc3c(N)ncnc32)C(=O)Cn2ccc(N)nc2=O)C(=O)Cn2cnc3c(N)ncnc32)C(=O)Cn2ccc(N)nc2=O)C(=O)Cn2ccc(N)nc2=O)C(=O)Cn2cc(C)c(=O)[nH]c2=O)C(=O)Cn2cnc3c(=O)[nH]c(N)nc32)C(=O)Cn2cnc3c(N)ncnc32)C(=O)Cn2ccc(N)nc2=O)C(=O)Cn2ccc(N)nc2=O)C(=O)Cn2cnc3c(=O)[nH]c(N)nc32)C(=O)Cn2cnc3c(=O)[nH]c(N)nc32)C(=O)Cn2cc(C)c(=O)[nH]c2=O)C(=O)Cn2ccc(N)nc2=O)c(=O)[nH]c1=O | Active | Active | 75 | 75 | Active | Active | inactive | inactive | Active | Active | 5
Cc1cn([C@@H]2O[C@H](COP(=O)(O)O[C@H]3[C@@H](O)[C@H](n4cnc5c(=O)[nH]c(N)nc54)O[C@@H]3COP(=O)(O)O[C@H]3[C@@H](O)[C@H](n4ccc(=O)[nH]c4=O)O[C@@H]3COP(=O)(O)O[C@H]3[C@@H](O)[C@H](n4cnc5c(N)ncnc54)O[C@@H]3COP(=O)(O)O[C@H]3C[C@H](n4ccc(N)nc4=O)O[C@@H]3COP(=O)(O)O[C@H]3[C@@H](O)[C@H](n4ccc(=O)[nH]c4=O)O[C@@H]3COP(=O)(O)O[C@H]3C[C@H](n4cnc5c(=O)[nH]c(N)nc54)O[C@@H]3COP(=O)(O)O[C@H]3[C@@H](O)[C@H](N4CC=C(N)NC4=O)O[C@@H]3COP(=O)(O)O[C@H]3[C@@H](O)[C@H](n4ccc(=O)[nH]c4=O)O[C@@H]3COP(=O)(O)O[C@H]3[C@@H](O)[C@H](n4cnc5c(=O)[nH]c(N)nc54)O[C@@H]3COP(=O)(O)O[C@H]3[C@@H](O)[C@H](n4cnc5c(N)ncnc54)O[C@@H]3COP(=O)(O)O[C@H]3[C@@H](O)[C@H](n4ccc(N)nc4=O)O[C@@H]3COP(=O)(O)O[C@H]3[C@@H](O)[C@H](n4ccc(N)nc4=O)O[C@@H]3COP(=O)(O)O[C@H]3[C@@H](O)[C@H](n4ccc(=O)[nH]c4=O)O[C@@H]3COP(=O)(O)O[C@H]3C[C@H](n4cnc5c(=O)[nH]c(N)nc54)O[C@@H]3COP(=O)(O)O[C@H]3[C@@H](O)[C@H](n4cnc5c(N)ncnc54)O[C@@H]3COP(=O)(O)O[C@H]3[C@@H](O)[C@H](n4cnc5c(=O)[nH]c(N)nc54)O[C@@H]3COP(=O)(O)O[C@H]3[C@@H](O)[C@H](n4cnc5c(=O)[nH]c(N)nc54)O[C@@H]3COP(=O)(O)O[C@H]3[C@@H](O)[C@H](n4cnc5c(=O)[nH]c(N)nc54)O[C@@H]3COP(=O)(O)O[C@H]3[C@@H](O)[C@H](n4cnc5c(=O)[nH]c(N)nc54)O[C@@H]3CO)[C@@H](OP(=O)(O)OC[C@H]3O[C@@H](n4cc(C)c(=O)[nH]c4=O)C[C@@H]3O)[C@H]2O)c(=O)[nH]c1=O | Active | Active |  |  |  |  |  |  |  |  | 
Cc1cn(CC(=O)N(CCNC(=O)CN(CCNC(=O)CN(CCNC(=O)CN(CCNC(=O)CN(CCNC(=O)CN(CCNC(=O)CN(CCNC(=O)CN(CCNC(=O)CN(CCNC(=O)CN(CCNC(=O)CN(CCNC(=O)CN(CCNC(=O)CN(CCNC(=O)CN(CCNC(=O)CN(CCNC(=O)CNC(=O)[C@@H](N)CCCCN)C(=O)Cn2ccc(N)nc2=O)C(=O)Cn2ccc(N)nc2=O)C(=O)Cn2cnc3c(N)ncnc32)C(=O)Cn2cnc3c(=O)[nH]c(N)nc32)C(=O)Cn2cc(C)c(=O)[nH]c2=O)C(=O)Cn2ccc(N)nc2=O)C(=O)Cn2ccc(N)nc2=O)C(=O)Cn2cnc3c(N)ncnc32)C(=O)Cn2ccc(N)nc2=O)C(=O)Cn2cnc3c(N)ncnc32)C(=O)Cn2cnc3c(=O)[nH]c(N)nc32)C(=O)Cn2ccc(N)nc2=O)C(=O)Cn2cc(C)c(=O)[nH]c2=O)C(=O)Cn2cnc3c(=O)[nH]c(N)nc32)CC(=O)NCCN(CC(=O)NCCN(CC(=O)NCCN(CC(=O)NCCN(CC(=O)N[C@@H](CCCCN)C(=O)O)C(=O)Cn2cc(C)c(=O)[nH]c2=O)C(=O)Cn2ccc(N)nc2=O)C(=O)Cn2cnc3c(N)ncnc32)C(=O)Cn2ccc(N)nc2=O)c(=O)[nH]c1=O |  |  | 75 | 75 | Active | Active | inactive | inactive | Active | Active | 3.5
